Patent US9409952B2, “Peptide-compound cyclization method” (Chugai Seiyaku Kabushiki Kaisha, priority 2011, dated 2016)
Read-outs that look alike come from different tables or passages of the source. Starred links: 1 amine or outer side, 2 acyl side, 3 side chain; linkers in the order of their positions; H or OH if unused. Positions of bridges follow the written chain, without caps; N, C: chain ends. Non-standard residues stand in square brackets, D forms with d. Residues, ends and D or L forms follow the SMILES beside them. *: point of attachment. Phe(4-(CH2)5CO) = O=C([C@H](Cc1ccc(CCCCCC(=O)[*:3])cc1)N[*:1])[*:2]; NMeF = CN[C@@H](Cc1ccccc1)C(=O)O; NMeGABA = CN(CCCC(=O)[*:2])[*:1]; NMeI = CC[C@H](C)[C@H](NC)C(=O)O; hPhe = N[C@@H](CCc1ccccc1)C(=O)O; NMeβAla = CN(CCC(=O)[*:2])[*:1]; NMeL = CN[C@@H](CC(C)C)C(=O)O; NMeV = CN[C@H](C(=O)O)C(C)C; NMeA = CN[C@@H](C)C(=O)O; Piperidide = C1CCN(*)CC1; dNMeA = CN[C@H](C)C(=O)O; β3hA = C[C@H](N)CC(=O)O; Sar = CNCC(=O)O; tBu = CC(C)(C)*

How the values were obtained:
[1] = PAMPA (parallel artificial membrane permeability assay); type: in vitro ADME; settings: PAMPA
Summary of the method: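 Artificial membrane was 10% (w/v) egg lecithin plus 0.5% (w/v) cholesterol in dodecane on a PVDF filter. A 10 mM DMSO stock was added at 0.5% (v/v) to donor buffer (50 mM MOPSO, pH 6.5, 5.0% glycocholic acid). After 18 h at 37 °C, LC/MS or LC/UV gave donor and acceptor levels for Pe.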

[2] = Metabolic stability in human hepatic microsome; type: in vitro ADME; settings: microsomes
[3] = membrane permeation rate (Pe), 50 mM MOPSO buffer pH 6.5 with 5.0% glycocholic acid, 37° C., 18 hours, read-out: iPAMPA Pe
[4] = pH 7.4, human hepatic microsome, NADPH(+), read-out: CL NADPH(+)

Row | Compound | Papp at 18 hours, 50 µM [1, 3] [×10⁻⁶ cm/s] | microsomal CLint at 1 uM [2, 4] [µL/min/mg] | Papp at 18 hours, 50 µM ([1]; pH 6.5) [×10⁻⁶ cm/s] | microsomal CLint at 1 uM ([2]; human, pH 7.4, CL NADPH(+)) [µL/min/mg]
1 | CC(C)C[C@H]1C(=O)N(C)[C@@H](C)C(=O)N[C@H](C(=O)N(C)[C@@H](Cc2ccccc2)C(=O)N(C)[C@@H](Cc2ccccc2)C(=O)N[C@@H](C)C(=O)N2CCCCC2)CC(=O)N(C)[C@H](C)C(=O)N(C)[C@@H](Cc2ccccc2)C(=O)N(C)CC(=O)N[C@@H]([C@@H](C)O)C(=O)N[C@@H](C)C(=O)N(C)[C@@H](C)C(=O)N1C [DP-463] ([dNMeA][NMeF][Sar]TA[NMeA][NMeL][NMeA]D[NMeF][NMeF]A-Piperidide; lactam N-9) | 3.1 | 10 |  | 
2 | CC(C)C[C@@H]1NC(=O)[C@H](C)NC(=O)[C@H]([C@@H](C)O)NC(=O)[C@H](C)N(C)C(=O)C[C@@H](C(=O)N2CCCCC2)NC(=O)[C@H](CC(C)C)N(C)C(=O)[C@H](CC(C)C)NC(=O)[C@H](C(C)C)N(C)C(=O)[C@H](CC(C)C)NC(=O)[C@H](Cc2ccccc2)NC(=O)CN(C)C1=O [DP-421] ([NMeA]TAL[Sar]FL[NMeV]L[NMeL]D-Piperidide; lactam N-11) | 29 | 171 |  | 
3 | CC(C)C[C@H]1C(=O)N[C@@H](COC(C)(C)C)C(=O)N(C)[C@@H](CC(C)C)C(=O)N[C@H](C(=O)N2CCCCC2)CC(=O)N[C@H](C)C(=O)N(C)[C@@H](C)C(=O)N(C)[C@@H](Cc2ccccc2)C(=O)N(C)[C@@H](CC(C)C)C(=O)N[C@@H]([C@@H](C)O)C(=O)N(C)CC(=O)N1C [DP-170] ([dA][NMeA][NMeF][NMeL]T[Sar][NMeL]S(tBu)[NMeL]D-Piperidide; lactam N-10) | 43 | 22 |  | 
4 | CC[C@H](C)[C@@H]1NC(=O)[C@H](CC(C)C)N(C)C(=O)[C@H](C(C)C)N(C)C(=O)[C@H](C)NC(=O)[C@H](C)N(C)C(=O)[C@H](Cc2ccccc2)NC(=O)[C@H]([C@@H](C)O)NC(=O)[C@H](CC(C)C)N(C)C(=O)[C@H](CC(C)C)N(C)C(=O)[C@H](C)N(C)C(=O)C[C@@H](C(=O)N2CCCCC2)NC1=O [DP-112] ([NMeA][NMeL][NMeL]TF[NMeA]A[NMeV][NMeL]ID-Piperidide; lactam N-11) |  |  | 35 | 49
5 | CC[C@H](C)[C@@H]1NC(=O)[C@H](CC(C)C)N(C)C(=O)[C@H](Cc2ccccc2)N(C)C(=O)[C@@H](C(C)C)NC(=O)C[C@H](C)NC(=O)[C@H](CC(C)C)N(C)C(=O)[C@H](C)N(C)C(=O)[C@H]([C@@H](C)O)NC(=O)[C@H](Cc2ccccc2)N(C)C(=O)[C@H](CC(C)C)N(C)C1=O [DP-781] (cyclo(I[NMeL][NMeF]T[NMeA][NMeL][β3hA][dV][NMeF][NMeL])) |  |  | 29 | 142
6 | CC(C)C[C@H]1C(=O)N(C)[C@@H](C)C(=O)N(C)[C@@H](CC(C)C)C(=O)N[C@H](C(=O)N(C)[C@@H](Cc2ccccc2)C(=O)N(C)[C@@H](Cc2ccccc2)C(=O)N[C@@H](C)C(=O)N2CCCCC2)CC(=O)N(C)CCCC(=O)N[C@@H]([C@@H](C)O)C(=O)N(C)[C@@H](Cc2ccccc2)C(=O)N(C)[C@@H](CC(C)C)C(=O)N[C@@H](C(C)C)C(=O)N1C [DP-403] ([NMeGABA]T[NMeF][NMeL]V[NMeL][NMeA][NMeL]D[NMeF][NMeF]A-Piperidide; lactam N-9) | 18 | 57 |  | 
7 | CC[C@H](C)[C@H]1C(=O)N[C@@H](C)C(=O)N(C)[C@@H](CC(C)C)C(=O)N(C)[C@@H](Cc2ccccc2)C(=O)N[C@@H]([C@@H](C)O)C(=O)N(C)[C@@H](C)C(=O)N(C)[C@@H](CC(C)C)C(=O)N(C)[C@@H](Cc2ccccc2)C(=O)N[C@H](C(=O)N(C)[C@@H](Cc2ccccc2)C(=O)N[C@@H](C)C(=O)N2CCCCC2)CC(=O)N(C)CC(=O)N(C)[C@@H](CC(C)C)C(=O)N1C [DP-284] ([Sar][NMeL][NMeI]A[NMeL][NMeF]T[NMeA][NMeL][NMeF]D[NMeF]A-Piperidide; lactam N-11) |  |  | 0.21 | 11
8 | CC(C)C[C@H]1C(=O)N(C)[C@@H](C(C)C)C(=O)N(C)[C@@H](C)C(=O)N[C@@H](CCc2ccccc2)C(=O)N(C)[C@@H](C)C(=O)N[C@H](C(=O)N2CCCCC2)CC(=O)N(C)[C@@H](C)C(=O)N[C@@H]([C@@H](C)O)C(=O)N(C)[C@@H](C)C(=O)N[C@@H](C)C(=O)N(C)[C@@H](Cc2ccccc2)C(=O)N1C [DP-734] ([NMeA]T[NMeA]A[NMeF][NMeL][NMeV][NMeA][hPhe][NMeA]D-Piperidide; lactam N-11) | 16 | 84 |  | 
9 | CC[C@H](C)[C@H]1C(=O)N[C@H](C(=O)N2CCCCC2)Cc2ccc(cc2)CCCCCC(=O)N[C@@H](CC(C)C)C(=O)N2CCC[C@H]2C(=O)N(C)[C@@H](C(C)C)C(=O)N[C@@H](Cc2ccccc2)C(=O)N(C)[C@@H](Cc2ccccc2)C(=O)N(C)[C@@H](CC(C)C)C(=O)N[C@@H](C)C(=O)N1C [DP-871] (LP[NMeV]F[NMeF][NMeL]A[NMeI][Phe(4-(CH2)5CO)]-Piperidide; lactam N-9) | 1.2 | 389 |  | 
10 | CC[C@H](C)[C@@H]1NC(=O)[C@@H](C)NC(=O)C[C@@H](C(=O)N(C)[C@@H](Cc2ccccc2)C(=O)N[C@@H](C)C(=O)N2CCCCC2)NC(=O)[C@H](Cc2ccccc2)N(C)C(=O)[C@H](C)NC(=O)[C@H](CC(C)C)N(C)C(=O)[C@H](C)N(C)C(=O)[C@H]([C@@H](C)O)NC(=O)[C@H](C(C)C)N(C)C(=O)[C@H](C)N(C)C1=O [DP-491] ([dA]I[NMeA][NMeV]T[NMeA][NMeL]A[NMeF]D[NMeF]A-Piperidide; lactam N-10) | 18 | 39 |  | 
11 | CC(C)C[C@H]1C(=O)N(C)[C@@H](C(C)C)C(=O)N(C)[C@@H](C)C(=O)N[C@@H](Cc2ccccc2)C(=O)N(C)[C@@H](C)C(=O)N[C@H](C(=O)N2CCCCC2)CC(=O)N(C)[C@@H](C)C(=O)N[C@@H]([C@@H](C)O)C(=O)N(C)[C@@H](C)C(=O)N[C@@H](C)C(=O)N(C)[C@@H](Cc2ccccc2)C(=O)N1C [DP-322] ([NMeA]T[NMeA]A[NMeF][NMeL][NMeV][NMeA]F[NMeA]D-Piperidide; lactam N-11) | 10 | 74 |  | 
12 | CC[C@H](C)[C@@H]1NC(=O)[C@H](CC(C)C)N(C)C(=O)[C@H](CC(C)C)N(C)C(=O)CN(C)C(=O)[C@H]([C@@H](C)O)NC(=O)[C@H](CC(C)C)N(C)C(=O)[C@H](CC(C)C)NC(=O)CCN(C)C(=O)C[C@@H](C(=O)N2CCCCC2)NC(=O)[C@H](C)NC(=O)[C@H](Cc2ccccc2)N(C)C(=O)[C@H](Cc2ccccc2)NC(=O)[C@H](CC(C)C)N(C)C1=O [DP-957] ([NMeβAla]L[NMeL]T[Sar][NMeL][NMeL]I[NMeL]F[NMeF]AD-Piperidide; lactam N-13) | 4 | 54 |  | 
13 | CC(C)C[C@@H]1NC(=O)[C@H](Cc2ccccc2)N(C)C(=O)[C@H]([C@@H](C)O)NC(=O)[C@H](Cc2ccccc2)N(C)C(=O)[C@H](C)N(C)C(=O)[C@H](C)N(C)C(=O)C[C@@H](C(=O)N2CCCCC2)NC(=O)[C@@H]2CCCN2C1=O [DP-687] ([NMeA][NMeA][NMeF]T[NMeF]LPD-Piperidide; lactam N-8) |  |  | 10 | 10
14 | CC[C@H](C)[C@H]1C(=O)N(C)[C@@H](C)C(=O)N(C)[C@@H](CC(C)C)C(=O)N[C@@H](COC(C)(C)C)C(=O)N(C)[C@@H](CC(C)C)C(=O)N[C@@H](C)CC(=O)N(C)[C@@H](C)C(=O)N(C)[C@@H](Cc2ccccc2)C(=O)N[C@@H](C)C(=O)N(C)[C@@H](CC(C)C)C(=O)N[C@@H]([C@@H](C)O)C(=O)N[C@@H](Cc2ccccc2)C(=O)N1C [DP-759] (cyclo(A[NMeL]TF[NMeI][NMeA][NMeL]S(tBu)[NMeL][β3hA][NMeA][NMeF])) |  |  | 27 | 144
15 | CC[C@H](C)[C@@H]1NC(=O)[C@H](CC(C)C)NC(=O)[C@H](C(C)C)NC(=O)[C@H](CC(C)C)N(C)C(=O)[C@H](CC(C)C)NC(=O)[C@H](Cc2ccccc2)NC(=O)[C@H]([C@@H](C)O)NC(=O)[C@H](C)N(C)C(=O)[C@H](CC(C)C)NC(=O)[C@H](C)N(C)C(=O)C[C@@H](C(=O)N2CCCCC2)NC1=O [DP-478] ([NMeA]L[NMeA]TFL[NMeL]VLID-Piperidide; lactam N-11) | 18 | 50 |  | 
16 | CC(C)C[C@@H]1NC(=O)[C@H](Cc2ccccc2)N(C)C(=O)[C@H](Cc2ccccc2)N(C)C(=O)[C@H]([C@@H](C)O)NC(=O)CN(C)C(=O)[C@H](C)NC(=O)C[C@@H](C(=O)N2CCCCC2)NC1=O [DP-751] (A[Sar]T[NMeF][NMeF]LD-Piperidide; lactam N-7) | 18 | 156 |  | 
17 | CC[C@H](C)[C@@H]1NC(=O)CCN(C)C(=O)C[C@@H](C(=O)N2CCCCC2)NC(=O)[C@H](Cc2ccccc2)N(C)C(=O)[C@H](CC(C)C)N(C)C(=O)[C@H](C)N(C)C(=O)[C@H](Cc2ccccc2)N(C)C(=O)[C@H]([C@@H](C)O)NC(=O)[C@H](CC(C)C)N(C)C(=O)[C@H](C)N(C)C(=O)[C@H](CC(C)C)N(C)C1=O [DP-159] ([NMeβAla]I[NMeL][NMeA][NMeL]T[NMeF][NMeA][NMeL][NMeF]D-Piperidide; lactam N-11) | 39 | 54 |  | 
18 | CC(C)C[C@@H]1NC(=O)[C@H]([C@@H](C)O)NC(=O)[C@H](CC(C)C)N(C)C(=O)CN(C)C(=O)[C@H](Cc2ccccc2)N(C)C(=O)[C@H](C(C)C)NC(=O)C[C@@H](C(=O)N2CCCCC2)NC1=O [DP-720] (V[NMeF][Sar][NMeL]TLD-Piperidide; lactam N-7) | 16 | 62 |  | 
